Source: patent US9642839B2, “Substance having tyrosine kinase inhibitory activity and preparation method and use thereof” (Institute of Radiation Medicine, China Academy of Military …, priority 2013, dated 2017)

Key:
[1] = system: non-small cell lung cancer (NSCLC); conditions: 250 mg/day tablet, NSCLC patients with previous chemotherapy, 159 subjects; cited from earlier work
MHCC97-H cells = assay: In vitro antitumor activity, MTS cell proliferation; format: cell-based, human; conditions: hepatocellular cancer, 72 hours
Description: (§1) Method: 14 cell lines (MKN-45 cells, MHCC97-L cells, MHCC97-H cells, HLE cells, HepG2 cells, 7721 cells, L02 cells, A375 cells, H460 cells, A549 cells, SK-N-SH cells, MCF-7 cells, K562 cells, and Ba/F3-Tpr-Met cells (pre-B cells which are malignantly transformed by the c-Met constitutive active mutant Tpr-Met) were seeded into 96-well plate at 1×10^4 cells/well, and each well was added with 150 μl DMEM medium (purchased from Invitrogen) containing 10% fetal bovine serum (purchased from Hyclone). When cell adherent was observed, different concentrations of 2-indolone derivatives (concentrations at 0.1-10 μM) were added, in addition to the negative control (vehicle control group) and blank control (medium group). After culture at 37° C., 5% CO2 for 72 hours, MTS reagent (Promega Corporation) were added for further culture for 2-4 h.

A549 cells = assay: as above; format: cell-based, human; conditions: A549, lung cancer, 72 hours
Description: as §1

[2] = system: protein tyrosine kinase (PTK); assay: PTK activity assay with mouse brain tissue extract (ELISA, OD 492 nm); format: biochemical; conditions: at 400 μM
Description: Tyrosine kinase buffer: 10 mL 1M HEPES (pH 7.5), 0.4 mL 5% BSA/PBS, 0.2 mL 0.1M Na3VO4, and 1 mL 5M NaCl were added to 88.4 mL double distilled water (DDW) (HEPES: Amresco; Na3VO4: Sigma).
Extraction of tissue extract PTK: mouse brain tissue was quickly removed and weighed, followed by addition of five-fold volumes of pre-cooled homogenization buffer for homogenization. After centrifugation at 4° C., 1,000 g for 10 min, nuclei and cell debris were removed. The supernatant S1 was collected and centrifuged at 4° C., 10,000 g for 20 min, and then the supernatant S2 was collected. The precipitate P2, which represents the crude membrane protein fraction, was retained. S2 included cytoplasmic protein, and was used for testing protein tyrosine kinase (PTK) activity. In the detection of the membrane protein fraction, two-fold volumes of lysis buffer was added to P2, and the resultant was placed on ice for 10 min and centrifuged at 4° C., 10,000 g for 10 min. The supernatant S3, which represents the crude membrane protein including soluble membrane protein, was collected for testing PTK activity. Protein content in cytoplasm or membrane protein was detected by using BCA protein concentration kit (purchased from Beyotime Institute of Biotechnology). The tissue extract was stored at −70° C.
Coating of 96-well plate: PTK substrate was dissolved and added in an amount of 100 μl to each well. The plate was covered with its lid, and incubated at 4° C. overnight (10-12 hours). Then it was washed with 200 μl elution buffer once, and dried at 37° C. for 2 h. After that, it was washed with 10 mM PBS once, dried at room temperature, and then stored at 4° C. for further use.
Groups: blank control: 80 μl 1× tyrosine kinase buffer containing ATP+20 μl 1× tyrosine kinase buffer; negative control: 80 μl 1× tyrosine kinase buffer containing ATP+10 μl 1× tyrosine kinase buffer+7 μl tissue extract+3 μl 1× tyrosine kinase buffer; positive control: 80 μl 1× tyrosine kinase buffer containing ATP+10 μl Gefitinib+7 μl tissue extract+3 μl 1× tyrosine kinase buffer (first, the positive drug was allowed to interact with the tyrosine kinase tissue extract at room temperature for 10 min, and meanwhile the tissue extract for the negative control group was also placed at room temperature for 10 min, and then 80 μl 1× tyrosine kinase buffer containing ATP was added to respective groups); vehicle control: 80 μl 1× tyrosine kinase buffer containing ATP+10 μl DMSO+7 μl tissue extract+3 μl 1× tyrosine kinase buffer; drugs to be screened: 80 μl 1× tyrosine kinase buffer containing ATP+10 μl drug to be tested +7 μl tissue extract+3 μl 1× tyrosine kinase buffer.
PTK activity assay: 1× tyrosine kinase buffer was prepared by evenly mixing 1 mL (10×) tyrosine kinase buffer with 9 mL DDW. The tissue extract was diluted with 1× tyrosine kinase buffer appropriately, mixed with it gently and evenly, and placed on ice. ATP stock solution was dissolved by evenly mixing 48 μl ATP stock solution with 1 mL 1× tyrosine kinase buffer, and placed on ice. The microplate reader was added in respective wells with the groups formulated as above, covered with the lid, and incubated at room temperature for 30 min. The microplate reader was washed with 200 μl elution buffer and tapped until the residual buffer was removed, and this procedure was repeated for five times. To each well, 100 μl antibody diluent (antibody elution buffer diluted at a ratio of 1:2000) was added. The reader was covered with the lid, and incubated at room temperature for 30 min. OPD solution was prepared by addition of 4 mg OPD into a mixture of 4.86 mL 0.1 mol/L citric acid solution and 5.14 mL 0.2 mol/L Na2HPO4 solution, followed by addition of 50 μl 30% H2O2 to allow for complete dissolution, and then was protected from light. The antibody solution was removed. The reader was washed with 200 μl elution buffer and tapped until the residual buffer was removed, and this procedure was repeated for five times.

MKN-45 cells = assay: In vitro antitumor activity, MTS cell proliferation; format: cell-based; conditions: MKN-45, gastric cancer, 72 hours
Description: as §1

SK-N-SH cells = assay: as above; format: cell-based; conditions: neuroblastoma, 72 hours
Description: as §1

A375 cells = assay: as above; format: cell-based; conditions: A375, skin cancer, 72 hours
Description: as §1

MHCC97-L cells = assay: as above; format: cell-based; conditions: hepatocellular cancer, 72 hours
Description: as §1

Ba/F3-Tpr-Met cells = assay: as above; format: cell-based; conditions: pre-B cell, 72 hours
Description: as §1

K562 cells = assay: as above; format: cell-based; conditions: K562, leukemia, 72 hours
Description: as §1

HLE cells = assay: as above; format: cell-based; conditions: hepatocellular cancer, 72 hours
Description: as §1

MCF-7 cells = assay: as above; format: cell-based; conditions: MCF-7, breast cancer, 72 hours
Description: as §1

H460 cells = assay: as above; format: cell-based; conditions: H460, lung cancer, 72 hours
Description: as §1

HepG2 cells = assay: as above; format: cell-based; conditions: HepG2, hepatocellular cancer, 72 hours
Description: as §1

L02 cells = assay: MTS cell proliferation, normal liver cells; format: cell-based; conditions: L02, normal hepatic cells, 72 hours
Description: […] After culture at 37° C., 5% CO2 for 72 hours, MTS reagent (Promega Corporation) were added for further culture for 2-4 h.

Row | IC50 (MHCC97-H cells) | IC50 (A549 cells) | Inhibition rate on tyrosine kinase [2] | IC50 (MKN-45 cells) | IC50 (SK-N-SH cells) | IC50 (A375 cells) | IC50 (MHCC97-L cells) | IC50 (Ba/F3-Tpr-Met cells) | IC50 (K562 cells) | IC50 (HLE cells) | IC50 (MCF-7 cells) | IC50 (H460 cells) | IC50 (HepG2 cells) | SMILES | Objective response rate [1] | IC50 (L02 cells)
1 |  |  |  |  |  |  |  |  |  |  |  |  |  | COc1cc2ncnc(Nc3ccc(F)c(Cl)c3)c2cc1OCCCN1CCOCC1 [Gefitinib] | 27.0% | 
2 | 1380 nM | 2890 nM | 51.2% | 1970 nM | 1350 nM | 3180 nM | 1540 nM | 5310 nM | 3020 nM | 6310 nM | 1720 nM | 1540 nM | 6470 nM | O=C1Nc2ccc(S(=O)(=O)Nc3ccc4ccccc4c3)cc2C1=Cc1nc2ccccc2[nH]1 [Indo 1, 3-(1H-benzimidazol-2-methylene)-5-(β-naphthylaminosulfo)-2-indolone] |  | 24800 nM
3 | 1670 nM | 3160 nM | 45.2% | 2130 nM | 1790 nM | 2480 nM | 1870 nM | 5930 nM | 3270 nM | 6790 nM | 1950 nM | 1780 nM | 6980 nM | O=C1Nc2ccc(S(=O)(=O)Nc3ccc(F)c(Cl)c3)cc2C1=Cc1nc2ccccc2[nH]1 [Indo 2, 3-(1H-benzimidazol-2-methylene)-5-(3-chloro-4-fluorophenylaminosulfo)-2-indolone] |  | 23700 nM
4 | 820 nM | 1540 nM | 55.9% | 1290 nM | 850 nM | 1470 nM | 1110 nM | 3870 nM | 2070 nM | 4720 nM | 960 nM | 1050 nM | 4790 nM | CN(c1ccccc1)S(=O)(=O)c1ccc2c(c1)C(=Cc1nc3ccccc3[nH]1)C(=O)N2 [Indo 3, 3-(1H-benzimidazol-2-methylene)-5-(N-methylphenylaminosulfo)-2-indolone] |  | 22200 nM
5 | 540 nM | 2320 nM | 60.7% | 940 nM | 540 nM | 970 nM | 640 nM | 2540 nM | 1340 nM | 3580 nM | 1460 nM | 780 nM | 3690 nM | O=C1Nc2ccc(S(=O)(=O)NC3CCCCC3)cc2C1=Cc1nc2ccccc2[nH]1 [Indo 4, 3-(1H-benzimidazol-2-methylene)-5-(cyclohexylaminosulfo)-2-indolone] |  | 26800 nM
6 | 910 nM | 1990 nM | 55.0% | 1380 nM | 1060 nM | 1650 nM | 1060 nM | 4210 nM | 2210 nM | 4870 nM | 1120 nM | 940 nM | 5180 nM | O=C1Nc2ccc(S(=O)(=O)Nc3ccc(Cl)cc3)cc2C1=Cc1nc2ccccc2[nH]1 [Indo 6, 3-(1H-benzimidazol-2-methylene)-5-(4-chlorophenylaminosulfo)-2-indolone] |  | 22600 nM
7 | 690 nM | 1280 nM | 58.2% | 1130 nM | 670 nM | 1220 nM | 970 nM | 3110 nM | 1670 nM | 4360 nM | 830 nM | 920 nM | 4250 nM | O=C1Nc2ccc(S(=O)(=O)Nc3ccc(CCO)cc3)cc2C1=Cc1nc2ccccc2[nH]1 [Indo 7, 3-(1H-benzimidazol-2-methylene)-5-(4-hydroxyethylphenylaminosulfo)-2-indolone] |  | 25700 nM
8 | 1530 nM | 3020 nM | 49.9% | 2020 nM | 1570 nM | 2350 nM | 1680 nM | 5680 nM | 3110 nM | 6580 nM | 1810 nM | 1630 nM | 6740 nM | Cc1ccc(NS(=O)(=O)c2ccc3c(c2)C(=Cc2nc4ccccc4[nH]2)C(=O)N3)cc1 [Indo 8, 3-(1H-benzimidazol-2-methylene)-5-(4-methylphenylaminosulfo)-2-indolone] |  | 25300 nM
9 | 1170 nM | 2520 nM | 51.3% | 1720 nM | 1220 nM | 2120 nM | 1310 nM | 4910 nM | 2640 nM | 5910 nM | 1350 nM | 1250 nM | 5980 nM | CCOc1ccc(NS(=O)(=O)c2ccc3c(c2)C(=Cc2nc4ccccc4[nH]2)C(=O)N3)cc1 [Indo 9, 3-(1H-benzimidazol-2-methylene)-5-(4-ethoxyphenylaminosulfo)-2-indolone] |  | 23200 nM
